Reference: ChEMBL document CHEMBL3351633, “Anithiactins A-C, modified 2-phenylthiazoles from a mudflat-derived Streptomyces sp” (J Nat Prod, 2014)
The source made the active and inactive calls. The rule behind the calls is not given here.

Assays:
Acetylcholinesterase = Acetylcholinesterase (Homo sapiens, UniProt P22303); assay: Inhibition of AChE (unknown origin) assessed as inhibition of acetylcholine hydrolysis preincubated for 15 mins by Ellman method
A498 = assay: Cytotoxicity against human A498 cells up to 200 uM by modified MTT assay; format: functional, cell-based
ACHN = assay: Cytotoxicity against human ACHN cells up to 200 uM by modified MTT assay; format: functional, cell-based

Chain of Acetylcholinesterase (P22303 whole entry): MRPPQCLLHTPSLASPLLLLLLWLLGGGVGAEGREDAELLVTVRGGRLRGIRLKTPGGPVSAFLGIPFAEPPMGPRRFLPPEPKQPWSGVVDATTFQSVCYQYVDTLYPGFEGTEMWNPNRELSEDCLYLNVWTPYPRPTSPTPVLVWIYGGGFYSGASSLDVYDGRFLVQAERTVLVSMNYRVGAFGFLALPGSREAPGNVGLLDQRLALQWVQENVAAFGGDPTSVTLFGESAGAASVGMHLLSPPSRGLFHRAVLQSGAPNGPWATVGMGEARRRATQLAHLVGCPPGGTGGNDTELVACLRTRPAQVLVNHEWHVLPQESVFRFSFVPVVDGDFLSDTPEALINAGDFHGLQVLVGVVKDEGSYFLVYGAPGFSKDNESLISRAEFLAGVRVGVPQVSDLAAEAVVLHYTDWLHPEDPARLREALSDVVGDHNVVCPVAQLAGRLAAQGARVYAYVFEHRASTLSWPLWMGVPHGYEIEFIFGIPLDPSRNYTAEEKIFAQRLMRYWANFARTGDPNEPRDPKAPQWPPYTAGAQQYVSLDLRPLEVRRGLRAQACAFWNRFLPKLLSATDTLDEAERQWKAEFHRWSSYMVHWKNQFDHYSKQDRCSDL

Row | Structure (SMILES) | IC50 (Acetylcholinesterase) [µM] | Activity (A498) | Activity (ACHN)
1 | CNc1ccccc1-c1nc(C(N)=O)cs1 | 53 | inactive | inactive
2 | CNc1ccccc1-c1nc(C(=O)O)cs1 | 68 | inactive | inactive
3 | CNc1ccccc1-c1nc(C(=O)OC)cs1 | 63 | inactive | inactive
